The record followed here is patent publication US20080234262A1 (Wyeth, priority 2007, published 2008).

Like-named read-outs stand apart in the source and are kept apart here.

In one assay the target is PI3K (Homo sapiens, UniProt P42336). In words: Fluorescence polarization assay for PI3K.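 Further: PI3K kinase reaction on PIP2 with ATP, 30-60 min, product sensed by GST-GRP with red probe in fluorescence polarization (mP), controls without enzyme and at zero time.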 It counts as biochemical. As to conditions: PI3Kα, read-out: PI3Kα IC50.
The target of another assay is T1, Human mTOR (FLAG-TOR) (Homo sapiens, UniProt P42345).
T1 construct: FLAG
The experiment in a line: Human mTOR kinase assay with purified enzyme, DELFIA format. It counts as biochemical.

For the next assay, the system named is breast line MDA468. The experiment in a line: In vitro cell culture growth assay (MTS), MDA468. It is filed as cell-based, human. As to conditions: MDA468 cells, three days after drug treatment. The procedure, abridged: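 Steps: plate cells; add inhibitors the next day; incubate 3 days; add MTS dye, which viable cells convert metabolically; measure absorbance at 490 nm; calculate percent of control growth relative to vehicle-treated cells in the same plate.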

The next assay concerns prostate line LNCap. In words: In vitro cell culture growth assay (MTS), LNCap.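 Further: viable cell density read by absorbance at 490 nm, growth expressed as percent of vehicle-treated cells on the same plate.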 It is filed as cell-based, human. Particulars: LNCap cells, three days after drug treatment.

PI3K, sequence (P42336 whole entry): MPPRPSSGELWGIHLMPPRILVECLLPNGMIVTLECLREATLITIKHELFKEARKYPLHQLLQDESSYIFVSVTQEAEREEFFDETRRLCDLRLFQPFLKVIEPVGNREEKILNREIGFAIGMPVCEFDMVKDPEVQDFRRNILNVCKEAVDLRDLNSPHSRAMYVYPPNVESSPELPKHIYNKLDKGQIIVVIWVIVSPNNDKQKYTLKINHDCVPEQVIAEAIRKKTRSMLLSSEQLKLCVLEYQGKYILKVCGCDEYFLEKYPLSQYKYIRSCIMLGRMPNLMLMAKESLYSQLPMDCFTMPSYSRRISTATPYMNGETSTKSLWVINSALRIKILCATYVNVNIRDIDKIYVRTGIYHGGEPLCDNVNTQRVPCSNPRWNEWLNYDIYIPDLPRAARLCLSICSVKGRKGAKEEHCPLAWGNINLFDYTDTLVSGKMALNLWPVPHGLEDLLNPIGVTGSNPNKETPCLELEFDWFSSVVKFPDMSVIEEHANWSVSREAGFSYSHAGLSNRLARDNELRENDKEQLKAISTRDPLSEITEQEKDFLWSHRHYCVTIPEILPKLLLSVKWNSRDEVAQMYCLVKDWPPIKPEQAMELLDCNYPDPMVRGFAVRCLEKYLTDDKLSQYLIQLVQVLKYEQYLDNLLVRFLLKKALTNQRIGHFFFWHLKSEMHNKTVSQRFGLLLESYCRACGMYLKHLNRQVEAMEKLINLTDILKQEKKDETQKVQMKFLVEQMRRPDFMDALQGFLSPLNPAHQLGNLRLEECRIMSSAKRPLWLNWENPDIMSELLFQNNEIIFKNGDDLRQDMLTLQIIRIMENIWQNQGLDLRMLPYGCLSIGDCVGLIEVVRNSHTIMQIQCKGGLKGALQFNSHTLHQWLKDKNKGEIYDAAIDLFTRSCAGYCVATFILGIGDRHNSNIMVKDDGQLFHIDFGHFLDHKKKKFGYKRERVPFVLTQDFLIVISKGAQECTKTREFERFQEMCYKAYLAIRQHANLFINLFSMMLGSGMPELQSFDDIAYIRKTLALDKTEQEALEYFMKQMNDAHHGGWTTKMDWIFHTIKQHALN
PI3K, sequence (P27986 whole entry partner): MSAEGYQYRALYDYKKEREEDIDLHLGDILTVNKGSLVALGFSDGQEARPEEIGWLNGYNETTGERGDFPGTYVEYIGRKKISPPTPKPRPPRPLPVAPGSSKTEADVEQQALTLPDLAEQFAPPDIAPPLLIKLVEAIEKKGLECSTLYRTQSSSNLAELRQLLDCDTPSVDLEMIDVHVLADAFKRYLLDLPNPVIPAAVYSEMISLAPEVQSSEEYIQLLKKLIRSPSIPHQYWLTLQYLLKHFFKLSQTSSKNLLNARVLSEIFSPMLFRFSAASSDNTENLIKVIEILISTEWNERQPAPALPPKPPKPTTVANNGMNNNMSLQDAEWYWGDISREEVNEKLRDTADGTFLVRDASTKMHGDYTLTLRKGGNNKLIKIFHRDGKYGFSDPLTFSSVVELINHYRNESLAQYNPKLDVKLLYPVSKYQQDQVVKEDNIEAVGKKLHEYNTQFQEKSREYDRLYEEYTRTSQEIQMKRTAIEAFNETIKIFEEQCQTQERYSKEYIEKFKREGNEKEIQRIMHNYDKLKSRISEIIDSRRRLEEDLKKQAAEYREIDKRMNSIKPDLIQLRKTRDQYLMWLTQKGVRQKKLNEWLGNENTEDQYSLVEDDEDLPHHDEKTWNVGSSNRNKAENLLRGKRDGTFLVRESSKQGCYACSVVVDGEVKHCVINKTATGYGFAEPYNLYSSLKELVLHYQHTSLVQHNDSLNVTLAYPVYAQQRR

Broadly, the IC50 is the concentration at which inhibition is half-maximal. Regarding “3-[4-(1,4-oxazepan-4-yl)-1-phenyl-1H-pyrazolo[3,4-d ]pyrimidin-6-yl]phenol [Example 75]”, the IC50 at PI3K is 10000 nM; against Human mTOR (FLAG-TOR) it was not below 20000 nM.

Turning to “5-[1-(1-Benzyl-piperidin-4-yl)-4-morpholin-4-yl-1H-pyrazolo[3,4-d]pyrimidin-6-yl]-1,3-dihydro-benzoimidazol-2-one [Example 35]”, the IC50 on PI3K was 8200 nM; against Human mTOR (FLAG-TOR), 130 nM.

Consider “3-(4-Morpholin-4-yl-1-piperidin-4-yl-1H-pyrazolo[3,4-d]pyrimidin-6-yl)-phenol [Example 5]”, for which the IC50 on PI3K is 440 nM; on Human mTOR (FLAG-TOR), 240 nM.

Take “1-(2-Fluoro-ethyl)-3-(4-{1-[1-(4-hydroxy-butyl)-piperidin-4-yl]-4-morpholin-4-yl-1H-pyrazolo[3,4-d]pyrimidin-6-yl}-phenyl)-urea [Example 54]”: the IC50 was 1750 nM on PI3K and 29 nM against Human mTOR (FLAG-TOR).

As for “1-(4-{4-(2-hydroxymorpholin-4-yl)-1-[1-(pyridin-3-ylmethyl)piperidin-4-yl]-1H-pyrazolo[3,4-d]pyrimidin-6-yl}phenyl)-3-methylurea [Example 61]”, the IC50 was determined as 9130 nM at PI3K and 300 nM at Human mTOR (FLAG-TOR).

Turning to “1-{4-[1-(1-Benzyl-piperidin-4-yl)-4-morpholin-4-yl-1H-pyrazolo[3,4-d]pyrimidin-6-yl]-phenyl}-3-methyl-thiourea [Example 34]”, the 50% inhibitory concentration (IC50) at PI3K is 1110 nM; against Human mTOR (FLAG-TOR) it was 1200 nM.

The molecule “4-(4-morpholin-4-yl-1-phenyl-1H-pyrazolo[3,4-d]pyrimidin-6-yl)aniline [Example 10]” came in with an IC50 against Human mTOR (FLAG-TOR) of 215 nM.

As to “4-{6-[4-(2,3-Dimethyl-isothioureido)-phenyl]-4-morpholin-4-yl-pyrazolo[3,4-d]pyrimidin-1-yl}-piperidine-1-carboxylic acid isopropyl ester [Example 57]”, the values for the IC50 on PI3K and against Human mTOR (FLAG-TOR) were 1700 nM and 118 nM, respectively.

Consider “1-Ethyl-3-(4-{1-[1-(4-hydroxy-butyl)-piperidin-4-yl]-4-morpholin-4-yl-1H-pyrazolo[3,4-d]pyrimidin-6-yl}-phenyl)-urea [Example 52]”, for which the values for the IC50 on PI3K and against Human mTOR (FLAG-TOR) were 1430 nM and 11.5 nM, respectively.

On to “4-(6-(3-hydroxyphenyl)-1-phenyl-1H-pyrazolo[3,4-d]pyrimidin-4-yl)morpholin-3-one [Example 73]”, for which the IC50 at PI3K (listed as 74) amounted to 8570 nM; on PI3K it was 8770 nM; against Human mTOR (FLAG-TOR), 380 nM.

Regarding `CCSC(=O)N1CCC(n2ncc3c(N4CCOCC4)nc(-c4ccc(NC(=O)NC)cc4)nc32)CC1` [Compound 762, S-ethyl 4-(6-{4-[(methylcarbamoyl)amino]phenyl}-4-morpholin-4-yl-1H-pyrazolo[3,4-d]pyrimidin-1-yl)piperidine-1-carbothioate], the IC50 in the assay on breast line MDA468 (Homo sapiens, 72 h) was found to be 170 nM; on PI3K it was 87 nM; with prostate line LNCap (Homo sapiens, LNCaP, 72 h) it was 50 nM.

As to `O=C(NCCO)Nc1ccc(-c2nc(N3CCOCC3)c3cnn(C4CCN(CC(F)(F)F)CC4)c3n2)cc1` [Compound 784, 1-(2-hydroxyethyl)-3-(4-{4-morpholin-4-yl-1-[1-(2,2,2-trifluoroethyl)piperidin-4-yl]-1H-pyrazolo[3,4-d]pyrimidin-6-yl}phenyl)urea], the IC50 with breast line MDA468 (Homo sapiens, 72 h) stood at 1050 nM; on PI3K, 380 nM; with prostate line LNCap (Homo sapiens, LNCaP, 72 h), 100 nM.

In the case of `O=C(Nc1ccc(-c2nc(N3CCOCC3)c3cnn(C4CCN(C(=O)c5cccnc5)CC4)c3n2)cc1)Nc1ccccn1` [Example 345, 1-(4-{4-morpholin-4-yl-1-[1-(pyridin-3-ylcarbonyl)piperidin-4-yl]-1H-pyrazolo[3,4-d]pyrimidin-6-yl}phenyl)-3-pyridin-2-ylurea], the IC50 in the assay with breast line MDA468 (Homo sapiens, 72 h) was found to be 700 nM; at PI3K, 261 nM; in the assay with prostate line LNCap (Homo sapiens, LNCaP, 72 h) it was 95 nM.

As to `CCNC(=NC#N)Nc1ccc(-c2nc(N3CCOCC3)c3cnn(C4CCN(Cc5cccnc5)CC4)c3n2)cc1` [Example 408, 2-cyano-1-ethyl-3-(4-{4-morpholin-4-yl-1-[1-(pyridin-3-ylmethyl)piperidin-4-yl]-1H-pyrazolo[3,4-d]pyrimidin-6-yl}phenyl)guanidine], the IC50 was 3200 nM in the assay with breast line MDA468 (Homo sapiens, 72 h); 916 nM on PI3K; 890 nM in the assay with prostate line LNCap (Homo sapiens, LNCaP, 72 h).

Consider `CNC(=O)Nc1ccc(-c2nc(N3CCOCC3)c3cnn(C4CCN(C(=O)c5cccc(C(C)=O)c5)CC4)c3n2)cc1` [Compound 667, 1-(4-{1-[1-(3-acetylbenzoyl)piperidin-4-yl]-4-morpholin-4-yl-1H-pyrazolo[3,4-d]pyrimidin-6-yl}phenyl)-3-methylurea], for which the IC50 with breast line MDA468 was 150 nM; at PI3K it was 83 nM; with prostate line LNCap it was 110 nM.

As for `CNC(=O)Nc1ccc(-c2nc(N3CCOCC3)c3cnn(C4CCN(Cc5ccc(OC)nc5)CC4)c3n2)cc1` [Example 330, 1-[4-(1-{1-[(6-methoxypyridin-3-yl)methyl]piperidin-4-yl}-4-morpholin-4-yl-1H-pyrazolo[3,4-d]pyrimidin-6-yl)phenyl]-3-methylurea], the IC50 in the assay with breast line MDA468 (Homo sapiens, 72 h) was found to be 700 nM; on PI3K it was 33 nM; in the assay with prostate line LNCap (Homo sapiens, LNCaP, 72 h), 27 nM.

In the case of `O=C(NCCc1ccccc1)Nc1ccc(-c2nc(N3CCOCC3)c3cnn(C4CCN(Cc5ccccc5)CC4)c3n2)cc1` [Compound 259, 1-{4-[1-(1-benzylpiperidin-4-yl)-4-morpholin-4-yl-1H-pyrazolo[3,4-d]pyrimidin-6-yl]phenyl}-3-(2-phenylethyl)urea], the IC50 amounted to 20000 nM in the assay on breast line MDA468 (Homo sapiens, 72 h); 2140 nM on PI3K; 1000 nM in the assay with prostate line LNCap (Homo sapiens, LNCaP, 72 h).

Consider `COc1cc(-c2nc(N3CCOCC3)c3cnn(C4CCN(Cc5ccccc5)CC4)c3n2)ccc1N` [Compound 181], for which the IC50 was 5500 nM in the assay with breast line MDA468 (Homo sapiens, 72 h); 2480 nM on PI3K; 1500 nM in the assay with prostate line LNCap (Homo sapiens, LNCaP, 72 h).

Regarding `O=C(Nc1ccc(-c2nc(N3CCOCC3)c3cnn(C4CCN(C(=O)c5ccccc5)CC4)c3n2)cc1)Nc1cccnc1` [Compound 624, 1-{4-[1-(1-benzoylpiperidin-4-yl)-4-morpholin-4-yl-1H-pyrazolo[3,4-d]pyrimidin-6-yl]phenyl}-3-pyridin-3-ylurea], the IC50 in the assay on breast line MDA468 (Homo sapiens, 72 h) is less than 27 nM; at PI3K it was 34 nM; in the assay on prostate line LNCap it was less than 27 nM.

As for `Nc1ccnc(-c2nc(N3CCOCC3)c3cnn(-c4ccccc4)c3n2)c1` [Compound 681, 2-(4-morpholin-4-yl-1-phenyl-1H-pyrazolo[3,4-d]pyrimidin-6-yl)pyridin-4-amine], the half-maximal inhibitory concentration (IC50) was more than 60000 nM in the assay with breast line MDA468, 1460 nM on PI3K and more than 60000 nM in the assay with prostate line LNCap.

`COC(=O)Nc1ccc(-c2nc(N3CCOCC3)c3cnn(C4CCN(Cc5ccc(Cl)cc5)CC4)c3n2)cc1` [Compound 695, methyl (4-{1-[1-(4-chlorobenzyl)piperidin-4-yl]-4-morpholin-4-yl-1H-pyrazolo[3,4-d]pyrimidin-6-yl}phenyl)carbamate]: the values for the concentration for half-maximal inhibition (IC50) in the assay on breast line MDA468, at PI3K and with prostate line LNCap were 9000 nM, 388 nM and 2000 nM, respectively.

In the case of `O=C(NCCF)Nc1ccc(-c2nc(N3CCOCC3)c3cnn(C4CCNCC4)c3n2)cc1` [Compound 774, 1-(2-fluoroethyl)-3-[4-(4-morpholin-4-yl-1-piperidin-4-yl-1H-pyrazolo[3,4-d]pyrimidin-6-yl)phenyl]urea], the 50% inhibitory concentration (IC50) with breast line MDA468 (Homo sapiens, 72 h) was 1050 nM; at PI3K, 436 nM; in the assay with prostate line LNCap (Homo sapiens, LNCaP, 72 h), 2300 nM.

In the case of `CCCNC(=O)Nc1ccc(-c2nc(N3CCOCC3)c3cnn(C4CCN(Cc5ccccc5)CC4)c3n2)cc1` [Compound 500, 1-{4-[1-(1-benzylpiperidin-4-yl)-4-morpholin-4-yl-1H-pyrazolo[3,4-d]pyrimidin-6-yl]phenyl}-3-propylurea], the IC50 amounted to 1500 nM with breast line MDA468 (Homo sapiens, 72 h); 341 nM on PI3K; 220 nM in the assay on prostate line LNCap (Homo sapiens, LNCaP, 72 h).

As for `c1cc2cc(-c3nc(N4CCOCC4)c4cnn(C5CCCCO5)c4n3)ccc2[nH]1` (centres unmarked) [Compound 237, 6-(1H-indol-5-yl)-4-morpholin-4-yl-1-(tetrahydro-2H-pyran-2-yl)-1H-pyrazolo[3,4-d]pyrimidine], the half-maximal inhibitory concentration (IC50) amounted to 1000 nM in the assay on breast line MDA468 (Homo sapiens, 72 h); 2420 nM at PI3K; 4200 nM in the assay with prostate line LNCap (Homo sapiens, LNCaP, 72 h).
